What was measured:
Aurora-A = biological target: T1, Aurora-A (Mus musculus, UniProt P97477); experiment: Aurora-A Screening Assay; assay type: biochemical, murine; details: test concentration of 1 μM; read-out: Aurora-A percent inhibition
T1 construct: followed by the full length protein encoding the murine Aurora-A; polyhistidine (N); made in house; host or cells: sf9 insect cells
T1 sequence (P97477 1-395): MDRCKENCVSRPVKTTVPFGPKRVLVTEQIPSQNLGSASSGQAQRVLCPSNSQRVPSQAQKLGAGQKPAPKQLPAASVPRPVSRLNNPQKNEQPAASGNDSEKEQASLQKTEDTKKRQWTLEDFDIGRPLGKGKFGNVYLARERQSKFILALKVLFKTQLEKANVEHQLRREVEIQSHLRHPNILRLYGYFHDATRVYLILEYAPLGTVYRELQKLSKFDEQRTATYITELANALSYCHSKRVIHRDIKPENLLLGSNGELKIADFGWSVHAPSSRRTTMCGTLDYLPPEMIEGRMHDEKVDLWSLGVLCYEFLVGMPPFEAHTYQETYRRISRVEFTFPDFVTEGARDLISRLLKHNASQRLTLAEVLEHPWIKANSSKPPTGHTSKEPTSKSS
Description: (§1) A kinase reaction mixture was prepared containing 50 mM Tris-HCl at pH 8, 10 mM, MgCl20.1 mM […], 1 mM DTT, 10 μM ATP, 0.025 μM biotinylated histone-H1 peptide substrate and 0.2 μCuries per well ^33P-γ-ATP (2000-3000 Ci/mmol). 70 μL of the kinase reaction mixture was dispensed into the well of a Streptavidin FlashPlate.
(§2) Test compound stock in 100% DMSO (1 μL) was added to the wells resulting in a final concentration of 1% DMSO in the reaction with a 100 μL final reaction volume. Each enzyme was diluted in 50 mM Tris-HCl pH=8.0, 0.1% BSA and 30 μL was added to each well to initiate the reaction. The reaction was incubated for one hour at 30° C. At the end of the 1 hr incubation, the reaction was terminated by aspirating the mixture from the plate and washing the wells twice with PBS containing 100 mM EDTA. The biotinylated peptide substrate became immobilized on the Flashplate^198 and the incorporation of ^33P-γ-ATP was measured by reading the plate on a scintillation counter. Inhibition of the enzymatic activity was measured by observing a reduced amount of ^33P-γ-ATP incorporated into the immobilized peptide.
Aurora-A is a fusion protein containing a polyhistidine tag at the N terminus followed by the full length protein encoding the murine Aurora-A (Accession number GB BC014711) expressed and purified from sf9 insect cells. The assay used 400 ng of the N-terminal biotinylated peptide biotin-GRTGRRNSI-amide (Aurora-A) per well.
(§3) The IC50 was derived according to the procedure described in Example 2. For those compounds without an IC50, the percent inhibition results are shown at a test concentration of 1 μM.

VEGF-R2 = biological target: T2, VEGF-R2 (Rattus norvegicus, UniProt O08775); experiment: VEGF-R2 Screening Assay; assay type: biochemical; details: test concentration of 1 μM; read-out: VEGF-R2 percent inhibition
T2 construct: polyhistidine (N)
Description: as §1, §2
The VEGF-R2 enzyme is a fusion protein containing a polyhistidine tag at the N terminus followed by amino acids 786 to 1343 of the rat VEGF-R2 kinase domain (Accession number U93306). The assay used 150 ng of the N-terminal biotinylated peptide biotin-KHKKLAEGSAYEEV-amide (VEGF-R2) per well.
as §3

EGFR = biological target: T3, EGFR (Homo sapiens, UniProt P00533); experiment: EGFR Kinase Assay; assay type: biochemical; details: for inhibition at 2 µM: test concentration of 2 μM, read-out: EGFR percent inhibition
T3 construct: The intracellular portion of EGFR started at nucleotide 2189 (corresponding to amino acid 667) and ended at the termination codon; made in house; host or cells: Sf9 insect cells (baculovirus)
From the text: The EGFR kinase used was a fusion of Glutathione-S-Transferase (GST) and a PCR amplified intracellular portion of EGFR (NM_005228). The intracellular portion of EGFR started at nucleotide 2189 (corresponding to amino acid 667) and ended at the termination codon. The portion was PCR amplified with primers that added the lambda attB sequences to each end, recombined into an entry vector, then into a GST destination vector (as described in Gateway Technologies Manual by Invitrogen Corporation, Carlsbad, Calif.).
The destination vector was recombined in the DH10BAC strain of bacteria to produce a bacmid. The bacmid was transfected into Sf 9 cells and the supernatant containing the baculovirus was collected. The GSTEGFR protein was purified using large cultures of Sf 9 cells infected with stock virus. After an appropriate period of time, the cells were collected and lysed. The GSTEGFR was then purified from the lysate on Glutathione-Sepharose columns (as described by Amersham Biosciences, Buckinghamshire, United Kingdom).
The EGFR substrate was prepared by biotinylating polyGluTyr (128 mg) (Sigma, St. Louis, Mo.) in a 1×PBS buffer incubated together with a 12-fold molar excess of Sulfo-NHS-LC-Biotin on ice for at least 2 hrs. The free biotin was separated from the biotinylated polyGluTyr on a gel filtration column.
A mixture of a 10× kinase buffer (500 mM Tris at pH 8.0, 100 mM Magnesium Chloride and 1 mM Sodium Vanadate), DTT (1 mM final from 500 mM stock), ATP (5 μM final from 10 mM stock), biotinylated polyGluTyr (10 μg/μL stock), γ-^33P ATP (10 μCi/μL stock) and water was added to each well (90 μL/well) of a Streptavidin Flashplate (Perkin Elmer, Wellesley, Mass.).
Test compound in 100% DMSO (2 μL) was added to the appropriate wells. Diluted GSTEGFR (1:300 dilution in 50 mM Tris at pH 8.0 and 0.1% bovine serum albumin) (10 μL) was added to the wells to initiate the reactions.
The plates were incubated at 30° C. for 1 hr with shaking. The reacted contents were removed and the plates were sequentially washed three times with a 1×PBS stop buffer (300 μL without Magnesium and Calcium) and 100 mM EDTA. After the final wash, the same stop buffer (200 μL) was added to the wells. The plates were then sealed and read on the TopCount scintillation counter.
Test compounds were assayed in triplicate at 16 concentrations at half-log dilutions starting at 200 uM. A maximum and minimum signal for the assay was determined on each plate. The percent inhibition of a test compound was calculated according to the formula
For a series of test concentrations, the IC50 was derived by graphing percent inhibition against the log of the concentrations tested for a given compound. For those compounds without an IC50, the percent inhibition results are shown at a test concentration of 2 μM.

HER-2 = biological target: T4, HER-2 (Homo sapiens, UniProt P04626); experiment: HER-2 Kinase Assay; assay type: biochemical; details: for inhibition at 1 µM: test concentration of 1 μM, read-out: HER-2 percent inhibition
T4 construct: the nucleotides encoding amino acids 679 to 1255 of HER-2; purchased Proqinase (Freiburg, Germany)
Description: HER-2 kinase was purified at Proqinase (Freiburg, Germany) from a construct that consisted of a fusion of GST (Glutathione-S-Transferase), HIS6-Thrombin and the nucleotides encoding amino acids 679 to 1255 of HER-2.
A mixture of a 10× kinase reaction buffer (600 mM Hepes at pH 7.5, 30 mM Magnesium Chloride, 0.03 mM Sodium Vanadate and 500 μg/mL PEG 20,000), DTT (1.2 mM final from a 10 mM stock), ATP (1 μM from a 10 mM stock), biotinylated polyGluTyr (1.5 ng/μL final from stock of 1 μg/μL prepared by Upstate Biotechnologies, Lake Placid, N.Y.), Manganese Chloride (3 mM final from a 1 M stock), γ-^33P-ATP (10 μCi/μL stock) and water (70 μL/well) was added to each well of a Streptavidin Flashplate (Cat. #SMP103, NEN, Boston, Mass.).
Test compound stock (1 μL) was added to the appropriate wells. Diluted GSTHER2 kinase (6.7 ng/μL diluted into 50 mM Tris-HCl at pH 8.0 and 0.1% bovine serum albumin) (30 μL) was added (total volume of 200 ng/well) to initiate the reactions.
The reaction plates were incubated at 30° C. for 1 hr. The reaction was terminated by aspiring the reaction mixture from the plate wells and washing the wells three times with a 1×PBS stop buffer (300 μL) and 100 mM EDTA. After the final wash, the same stop buffer (200 μL) was again added to the wells. The plates were then sealed and read on the TopCount scintillation counter.
as §3

T2 sequence (O08775 786-1343): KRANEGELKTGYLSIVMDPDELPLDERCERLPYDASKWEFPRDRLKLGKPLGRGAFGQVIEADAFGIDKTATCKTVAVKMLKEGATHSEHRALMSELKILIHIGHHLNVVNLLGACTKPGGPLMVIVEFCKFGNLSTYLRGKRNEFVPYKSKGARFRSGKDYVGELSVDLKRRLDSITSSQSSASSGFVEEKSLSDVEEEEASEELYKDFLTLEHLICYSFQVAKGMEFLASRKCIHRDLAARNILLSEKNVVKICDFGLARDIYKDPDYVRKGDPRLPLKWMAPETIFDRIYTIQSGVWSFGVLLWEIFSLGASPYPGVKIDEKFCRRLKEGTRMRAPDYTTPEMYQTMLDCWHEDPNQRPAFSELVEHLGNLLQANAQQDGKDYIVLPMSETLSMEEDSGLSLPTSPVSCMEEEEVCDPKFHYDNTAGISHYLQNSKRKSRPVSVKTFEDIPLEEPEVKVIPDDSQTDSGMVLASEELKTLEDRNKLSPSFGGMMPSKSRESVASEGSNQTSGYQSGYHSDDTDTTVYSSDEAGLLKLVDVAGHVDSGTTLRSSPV
T3 sequence (P00533 669-1210 limits assumed): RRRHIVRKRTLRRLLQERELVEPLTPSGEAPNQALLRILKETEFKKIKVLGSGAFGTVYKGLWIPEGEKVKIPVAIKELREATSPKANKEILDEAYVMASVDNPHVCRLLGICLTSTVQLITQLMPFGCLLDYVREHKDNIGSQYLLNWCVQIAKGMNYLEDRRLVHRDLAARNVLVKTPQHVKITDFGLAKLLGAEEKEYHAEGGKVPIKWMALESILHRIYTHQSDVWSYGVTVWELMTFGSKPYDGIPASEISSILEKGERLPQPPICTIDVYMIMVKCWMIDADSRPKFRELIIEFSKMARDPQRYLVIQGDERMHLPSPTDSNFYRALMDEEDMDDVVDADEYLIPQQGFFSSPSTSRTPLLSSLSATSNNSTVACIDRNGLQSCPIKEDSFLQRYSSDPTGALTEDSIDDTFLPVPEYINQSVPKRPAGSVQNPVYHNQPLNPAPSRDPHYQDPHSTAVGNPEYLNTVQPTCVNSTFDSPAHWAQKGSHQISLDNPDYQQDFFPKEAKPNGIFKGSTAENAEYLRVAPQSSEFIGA
T4 sequence (P04626 679-1255): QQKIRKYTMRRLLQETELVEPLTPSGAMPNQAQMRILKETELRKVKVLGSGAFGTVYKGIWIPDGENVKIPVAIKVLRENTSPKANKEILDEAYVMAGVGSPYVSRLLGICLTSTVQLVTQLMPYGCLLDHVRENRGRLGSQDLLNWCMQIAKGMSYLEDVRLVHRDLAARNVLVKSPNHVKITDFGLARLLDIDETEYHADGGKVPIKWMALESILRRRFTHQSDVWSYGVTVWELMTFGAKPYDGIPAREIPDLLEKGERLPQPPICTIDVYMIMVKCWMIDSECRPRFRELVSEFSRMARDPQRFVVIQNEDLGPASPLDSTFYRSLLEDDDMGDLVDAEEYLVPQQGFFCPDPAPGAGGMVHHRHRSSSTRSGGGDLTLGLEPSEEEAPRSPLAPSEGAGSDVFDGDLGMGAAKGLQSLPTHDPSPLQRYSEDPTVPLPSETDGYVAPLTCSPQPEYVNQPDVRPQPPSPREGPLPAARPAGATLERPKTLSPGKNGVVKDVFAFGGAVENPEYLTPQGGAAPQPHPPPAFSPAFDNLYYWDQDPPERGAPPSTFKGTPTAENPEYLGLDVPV

SMILES	inhibition at 1 µM (Aurora-A)	inhibition at 1 µM (VEGF-R2)	inhibition at 2 µM (EGFR)	inhibition at 1 µM (HER-2)	IC50 (EGFR)	IC50 (HER-2)
CN(C)c1cc(NC(=O)c2sc3ncc(C#N)c4c3c2NC(=O)N4c2c(Cl)ccc3c2OCO3)ccc1CN1CCOCC1 [Cpd 27, 5-(5-chloro-benzo[1,3]dioxol-4-yl)-6-cyano-4-oxo-4,5-dihydro-3H-1-thia-3,5,8-triaza-acenaphthylene-2-carboxylic acid (3-dimethylamino-4-morpholin-4-ylmethyl-phenyl)-amide]	16%	7%	34%	0%		
CN(C(=O)c1sc2ncc(C#N)c3c2c1NC(=O)N3c1c(Cl)ccc2c1OCO2)c1ccc(CN2CCOCC2)cc1 [Cpd 29, 5-(5-chloro-benzo[1,3]dioxol-4-yl)-6-cyano-4-oxo-4,5-dihydro-3H-1-thia-3,5,8-triaza-acenaphthylene-2-carboxylic acid methyl-(4-morpholin-4-ylmethyl-phenyl)-amide]	13%	10%	2%	0%		
N#Cc1cnc2sc(C(=O)Nc3ccc(NCCCN4CCOCC4)nc3)c3c2c1N(c1c(Cl)ccc2c1OCO2)C(=O)N3 [Cpd 30, 5-(5-chloro-benzo[1,3]dioxol-4-yl)-6-cyano-4-oxo-4,5-dihydro-3H-1-thia-3,5,8-triaza-acenaphthylene-2-carboxylic acid [6-(3-morpholin-4-yl-propylamino)-pyridin-3-yl]-amide]	22%	12%	11%	35%		
COc1cc(NC(=O)c2sc3ncc(C#N)c4c3c2NC(=O)N4c2c(Cl)ccc3c2OCO3)ccc1OCCN1CCCCC1 [Cpd 31, 5-(5-chloro-benzo[1,3]dioxol-4-yl)-6-cyano-4-oxo-4,5-dihydro-3H-1-thia-3,5,8-triaza-acenaphthylene-2-carboxylic acid [3-methoxy-4-(2-piperidin-1-yl-ethoxy)-phenyl]-amide]	22%	17%		35%	0.513 µM	
CN1CCCCC1COc1ccc(NC(=O)c2sc3ncc(C#N)c4c3c2NC(=O)N4c2c(Cl)ccc3c2OCO3)cc1 (stereo not shown) [Cpd 32, 5-(5-chloro-benzo[1,3]dioxol-4-yl)-6-cyano-4-oxo-4,5-dihydro-3H-1-thia-3,5,8-triaza-acenaphthylene-2-carboxylic acid [4-(1-methyl-piperidin-2-ylmethoxy)-phenyl]-amide]	13%	1%	35%	22%		

Next, values leading:

inhibition at 1 µM (Aurora-A)	inhibition at 1 µM (VEGF-R2)	inhibition at 2 µM (EGFR)	inhibition at 1 µM (HER-2)	IC50 (EGFR)	IC50 (HER-2)	SMILES
25%	15%	9%	35%			N#Cc1cnc2sc(C(=O)N3CCC(O)CC3)c3c2c1N(c1c(Cl)ccc2c1OCO2)C(=O)N3 [Cpd 28, 5-(5-chloro-benzo[1,3]dioxol-4-yl)-2-(4-hydroxy-piperidine-1-carbonyl)-4-oxo-4,5-dihydro-3H-1-thia-3,5,8-triaza-acenaphthylene-6-carbonitrile]
29%	18%		37%	1.22 µM		N#Cc1cnc2sc(C(=O)Nc3cc[nH]n3)c3c2c1N(c1c(Cl)ccc2c1OCO2)C(=O)N3 [Cpd 33, 5-(5-chloro-benzo[1,3]dioxol-4-yl)-6-cyano-4-oxo-4,5-dihydro-3H-1-thia-3,5,8-triaza-acenaphthylene-2-carboxylic acid (1H-pyrazol-3-yl)-amide]
29%	16%	30%			> 1 µM	Cc1cc(NC(=O)c2sc3ncc(C#N)c4c3c2NC(=O)N4c2c(Cl)ccc3c2OCO3)no1 [Cpd 34, 5-(5-chloro-benzo[1,3]dioxol-4-yl)-6-cyano-4-oxo-4,5-dihydro-3H-1-thia-3,5,8-triaza-acenaphthylene-2-carboxylic acid (5-methyl-isoxazol-3-yl)-amide]
16%	22%	42%			> 1 µM	N#Cc1cnc2sc(C(=O)Nc3ncccn3)c3c2c1N(c1c(Cl)ccc2c1OCO2)C(=O)N3 [Cpd 35, 5-(5-chloro-benzo[1,3]dioxol-4-yl)-6-cyano-4-oxo-4,5-dihydro-3H-1-thia-3,5,8-triaza-acenaphthylene-2-carboxylic acid pyrimidin-2-ylamide]
21%	15%	35%	29%			N#Cc1cnc2sc(C(=O)Nc3cccnc3)c3c2c1N(c1c(Cl)ccc2c1OCO2)C(=O)N3 [Cpd 36, 5-(5-chloro-benzo[1,3]dioxol-4-yl)-6-cyano-4-oxo-4,5-dihydro-3H-1-thia-3,5,8-triaza-acenaphthylene-2-carboxylic acid pyridin-3-ylamide]

Source: patent publication US7427625B2, “Substituted thiatriazaacenaphthylene-6-carbonitrile kinase inhibitors” (Janssen Pharmaceutica, N.V., priority 2006, dated 2008)
